Data: patent US20230372433A1, “NANOPARTICLE FOR ANTI-CANCER PEPTIDES AND USES THEREOF” (KING'S COLLEGE LONDON, priority 2020, published 2023)
Read-outs that look alike come from different tables or passages of the source.

Assays:
[1] = Tryptophan fluorescent binding assay, 3POPC/1POPG vesicles; details: 50 μM peptide, PBS pH 7.4
Method: (§1) In brief, 50 μM peptides were fixed and incubated with titrated POPC vesicles (black) or 3POPC/1POPG vesicles (grey) at concentrations of 0, 12.5, 25, 50, 100, 250, 500, 1000, 2500, and 5000 μM in phosphate buffered saline (1X, pH 7.4). The lipid concentration that causes 50% peptide binding was determined using a tryptophan fluorescent binding assay and the values are shown as lipid per peptide.
(§2) The lipids 1-palmitoyl-2-oleoyl-sn-glycero-3-phosphocholine (POPC), 1-palmitoyl-2-oleoyl-snglycero-3-phospho-(1′-rac-glycerol) (POPG) were purchased from Avanti Polar Lipids and dissolved in chloroform. Large unilamellar vesicles (LUVs) were produced by extrusion through 100 nm pore filter using an extruder and filters purchased from Avanti Polar Lipids.
(§3) Peptides (50 μM) and POPC/POPG LUVs (600 μM) were prepared in 10 mM phosphate buffer (pH 7.0). The solutions were incubated and measured after 60 minutes. Excitation was fixed at 280 nm (slit 9 nm) and emission was collected from 300 to 450 nm (slit 9 nm). The spectra were recorded using a Synergy H1 Hybrid Multi-Mode Reader (FIG. 3A) and Cytation™ 5 Cell Imaging Multi-Mode Reader (FIG. 2) from BioTek and were averaged over 3 scans.
(§4) Table 3 illustrates the lipid concentration-induced 50% peptide binding onto a liposome. 50 μM peptide was fixed and incubated with titrated lipid (POPC vesicles or 3POPC/1POPG vesicles) at concentrations of 0, 12.5, 25, 50, 100, 250, 500, 1000, 2500, and 5000 μM in phosphate buffered saline (1X, pH 7.4). The lipid concentration that causes 50% peptide binding was determined using tryptophan fluorescent binding assay and the values are shown as lipid per peptide. IN-terminus is free, C-terminus: —W—NH2.

[2] = tested on: HMLER-shEcad (human breast cancer stem cell); assay: MTT cytotoxicity assay, HMLER-shEcad; assay type: cell-based; details: 72 hr, MTT; read-out: IC50 HMLER-shEcad
[3] = ANTS/DPX liposome leakage assay, 3POPC/1POPG vesicles; assay type: biochemical; details: for Peptide Concentration-induced 50% ANTS/DPX leakage at pH 4.8 (L/P) 3POPC/1POPG Vesicle / Peptide Concentration-induced 50% ANTS/DPX leakage at pH 7.4 (L/P) 3POPC/1POPG Vesicle: 0.5 mM vesicles
Method: (§5) In brief, 0.5 mM POPC vesicles (grey) or POPC:POPG vesicles (ratio 3:1, black) were incubated with peptide concentrations of 0, 0.02, 0.04, 0.08, 0.16, 0.32, 0.64, 1.25, 2.5, 5, 10, and 20 μM in each A) hydrochloric acid-adjusted phosphate buffered saline (1X, pH 4.8) and B) phosphate buffered saline (1X, pH 7.4).
as §2
(§6) 5 mM ANTS (8-aminonaphthalene-1,3,6-trisulfonic acid, disodium salt) and 12.5 mM DPX (p-xylene-bis-pyridinium bromide) were entrapped in 0.1 μm diameter extruded vesicles with lipids. Gel filtration chromatography using a Sephadex G-100 (GE Healthcare Life Sciences Inc) was used to remove external free ANTS/DPX from LUVs with entrapped contents. LUVs were diluted to 0.5 mM and used to measure the leakage activity by addition of aliquots of peptides. Leakage was measured after 3 h incubation. 10% Triton was used as the positive control to measure the maximum leakage of the vesicle. Fluorescence emission spectra were recorded using excitation and emission wavelength of 350 nm and 510 nm for ANTS/DPX using a BioTek Synergy H1 Hybrid Multi-Mode Reader.
(§7) Table 4 illustrates peptide concentration-induced 50 ANTS/DPX liposome leakage. 0.5 mM POPC and 3POPC/1POPG vesicles were fixed and incubated with titrated peptide concentration (0, 0.02, 0.04, 0.08, 0.16, 0.32, 0.64, 1.25, 2.5, 5, 10, and 20 μM) each in phosphate buffered saline (1X, pH 7.4) and hydrochloric acid-adjusted phosphate buffered saline (1X, pH 4.8). The values are shown as lipid per peptide. IN-terminus is free, C-terminus: —W—NH2.

[4] = ANTS/DPX liposome leakage assay, POPC vesicles; assay type: biochemical; details: 0.5 mM vesicles
Method: as §5, §2, §6, §7

[5] = tested on: U2OS (human bone osteosarcoma); assay: MTT cytotoxicity assay, U2OS; assay type: cell-based; details: 72 hr
[6] = tested on: HMLER (human breast cancer bulk cell); assay: MTT cytotoxicity assay, HMLER; assay type: cell-based; details: 72 hr, MTT; read-out: IC50 HMLER
[7] = Tryptophan fluorescent binding assay, POPC vesicles; details: 50 μM peptide, PBS pH 7.4
Method: as §1, §2, §3, §4

[8] = tested on: HEK293T (human embryonic kidney cell); assay: MTT cytotoxicity assay, HEK293T; assay type: cell-based; details: 72 hr, MTT; read-out: IC50 HEK293T
[9] = tested on: MCF-10A (human breast epithelial cell); assay: cells
Excerpt: HMLER (human mammary endothelial cancer cells), HMLER-shEcad (human mammary endothelial cancer stem cells), and MCF-10A (healthy human mammary endothelial) cells were maintained in Mammary Epithelial Cell Growth Medium (MEGM) with supplements and growth factors: bovine pituitary extract (BPE), hydrocortisone, human epidermal growth factor (hEGF), insulin, and gentamicin/amphotericin-B. HEK293T (human embryonic kidney cell), and U2OS (homo sapiens bone osteosarcoma) cells were maintained in Dulbecco's Modified Eagle's Medium (DMEM) with a final concentration of 10% fetal bovine serum. The cells were grown in T75 flask at 310 K in a humidified atmosphere containing 5% CO2.
The colourimetric MTT (3-(4,5-dimethylthiazol-2-yl)-2,5-diphenyltetrazolium bromide) assay was used to determine the toxicity of the anti-cancer peptides and conventional anti-cancer drugs. 5×10^3 cells were seeded in each well of a 96-well microplate. The cells were incubated overnight. Elevated concentrations of the compounds (0, 0.1, 0.2, 0.4, 0.8, 1.6, 3.1, 6.3, 12.5, 25, 50 and 100 μM) were added and incubated for 72 hr with a total volume 200 μL. The stock solutions of the compounds were prepared as 5 mM solutions in DMSO and diluted using media or in pure water. The final concentration of DMSO in each well was either 0.5% or 0% and this amount was present in the untreated control. After 72 hr, 20 μL of a 4 mg/mL solution of MTT in PBS was added to each well, and the plate was incubated for an additional 4 hr. The MEGM/MTT mixture was aspirated and 100 μL of DMSO was added to dissolve the resulting purple formazan crystals. The absorbance of the solutions in each well was read at 550 nm wavelength. Absorbance values were normalized to either DMSO-containing or non DMSO-containing control wells and plotted as concentration of test compound versus % cell viability. ICso values were interpolated from the resulting dose dependent curves.
The peptides were screened against several different human cell lines and their cytotoxicity were determined. Cell lines utilised include MCF-10A (human breast epithelial cell), HMLER (human breast cancer bulk cell), HMLER-shEcad (human breast cancer stem cell), HEK293T (human embryonic kidney cell), and U2OS (human bone osteosarcoma).

Row | Compound | Lipid Concentration-induced 50% Peptide Binding (L/P) 3POPC/1POPG Vesicle [1] | IC50 [2] | Peptide Concentration-induced 50% ANTS/DPX leakage at pH 4.8 (L/P) 3POPC/1POPG Vesicle ([3]; pH 4.8) | Peptide Concentration-induced 50% ANTS/DPX leakage at pH 7.4 (L/P) 3POPC/1POPG Vesicle [3] | liposome leakage activity from anionic vesicle at pH 4.8 ([3]; compared with zwitterionic vesicle, pH 4.8) | Peptide Concentration-induced 50% ANTS/DPX leakage at pH 4.8 (L/P) POPC Vesicle [4] | Peptide Concentration-induced 50% ANTS/DPX leakage at pH 7.4 (L/P) POPC Vesicle [4] | IC50 [5] | IC50 [6] | Lipid Concentration-induced 50% Peptide Binding (L/P) POPC Vesicle [7] | IC50 [8] | IC50 [9] | IC50 ([9]; read-out: IC50 MCF-10A, 72 hr, MTT)
1 | CC(C)C[C@H](NC(=O)CN)C(=O)N[C@@H](CC(C)C)C(=O)N[C@@H](CC(=O)O)C(=O)N[C@@H](CC(C)C)C(=O)N[C@@H](CC(C)C)C(=O)N[C@@H](CCC(=O)O)C(=O)N[C@@H](CC(C)C)C(=O)N[C@@H](CC(C)C)C(=O)N[C@@H](CC(C)C)C(=O)N[C@@H](CCCCN)C(=O)N[C@@H](C)C(=O)N[C@@H](C)C(=O)NCC(=O)N[C@@H](Cc1c[nH]c2ccccc12)C(N)=O [DEK] | 1.67 L/P | 0.7 ± 0.07 µM | 469 L/P | 773 L/P | relatively higher liposome leakage activity | 10 L/P | 747 L/P | 19.9 ± 2.65 µM | 1.14 ± 0.52 µM | 1.50 L/P | 6.8 ± 0.85 µM | ≥ 100 µM | 
2 | CC(C)C[C@H](NC(=O)CN)C(=O)N[C@@H](CC(C)C)C(=O)N[C@@H](CCC(=O)O)C(=O)N[C@@H](CC(C)C)C(=O)N[C@@H](CC(C)C)C(=O)N[C@@H](CCC(=O)O)C(=O)N[C@@H](CC(C)C)C(=O)N[C@@H](CC(C)C)C(=O)N[C@@H](CC(C)C)C(=O)N[C@@H](CCC(=O)O)C(=O)N[C@@H](C)C(=O)N[C@@H](C)C(=O)NCC(=O)N[C@@H](Cc1c[nH]c2ccccc12)C(N)=O [EEE] | 4.50 L/P | 10.6 ± 3.46 µM | 28 L/P | 346 L/P |  | 35 L/P | 143 L/P | 78.8 ± 5.3 µM | 6.25 ± 1.77 µM | 1.33 L/P | 50 µM | ≥ 100 µM | 
3 | GLDDLAKLLLKLAG [25B2, reference compound] |  | 11.7 ± 0.49 µM |  |  |  |  |  | 54 ± 8.43 µM | 8.36 ± 0.61 µM |  | 25.2 ± 2.19 µM |  | 26.7 ± 3.33 µM
4 | GLLDLLHLLLHAAG [DHH] | 0.28 L/P | 11.9 ± 0.14 µM | 98 L/P | 692 L/P |  | 106 L/P | 684 L/P | 55.9 ± 18.9 µM | 21.4 ± 2.47 µM | 0.67 L/P | 6.4 ± 0.42 µM |  | 
